Experimental data: PMC7617869, “Molecular glues that inhibit deubiquitylase activity and inflammatory signaling” (Nature Structural & Molecular Biology, 2025)
Values joined by “and” are separate entries in the source; they are usually repeats but may differ in a detail not shown here. Identical values can stand only once. Like-named read-outs stand apart in the source and are kept apart here.

How the values were obtained:
BRISC = molecular target: T1, BRISC (Homo sapiens, UniProt P46736+Q15018+Q9NXR7); assay: BRISC DUB activity assay (IQF K63-linked diubiquitin); format: biochemical
T1 construct: made in house; host or cells: Spodoptera frugiperda (Sf9) insect cells, MultiBac
In short: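 50 mM HEPES pH 7.0, 100 mM NaCl, 0.1 mg/ml BSA, 1 mM DTT, 0.03% Brij-35; BRISC WT/mutants 1 nM final; IQF K63 diUb 50 nM. Fluorescence read ex 544/em 575 nm each min, 30 min, 30 °C. V0 = progress-curve slope; IC50 by variable-slope dose–response.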

[1] = test system: ISG expression in MCF10A Cas9 cells expressing BRCC45 R137A; assay: MCF10A BRCC45 R137A ISG expression (RT–qPCR); format: cell-based, human; parameters: scale not given here; conditions: BRCC45 KO+ BRCC45 R137A; replicate values
Method: Supplementary Protocols 1. Experimental procedures for cell biology experiments. […]
Media supplements including human insulin solution (Santa Cruz Biotechnology, #sc-360248), cholera toxin from vibrio (Sigma Aldrich, #C8052-2MG), recombinant human EGF (PeproTech, #AF-100-15-100µg), hydrocortisone (Sigma-Aldrich, #H-0888) were used to grow MCF10A cells. The 4–12% Bis-Tris SDS-PAGE gels, cell culture media, horse serum and other materials for tissue culture were purchased from Invitrogen. LipoD293 (SigmaGen, #SL100668) was used for all the transfections to generate knock out cell lines.
Immortalised breast epithelial cell line MCF10A were cultured in 10 cm plates with Dulbecco’s Modified Eagle Medium (DMEM) + F-12 (1:1) supplemented with 5% horse serum, 100 ng/mL cholera toxin, 10 […]
Real-time quantitative PCR
1x10^5 MCF10A cells were cultured as described above and seeded into 6 well plates. Cells were left to reach ultra-confluence. Once confluent, cells were washed with PBS and starved for 30 minutes in 2 mL DMEM + F-12 (1:1) supplemented with 1% horse serum. After 30 minutes cells were pre-treated with either DMSO (0.1%) (Control and IFN only) or BRISC inhibitor (2.5 µM) for 15 minutes. After 15 minutes, hIFN2α (75 ng/mL) was added to the media and mixed. Cells were treated for 4 hours. Cells were washed with ice cold PBS and scraped with cell scrapers into 350 µL RNAlater buffer and RNA […]
#79254). Isolated RNA was quantified using a Nanodrop spectrophotometer. RNA was converted into cDNA and the complementary DNA was used for real-time quantitative PCR analysis of expression of interferon stimulated genes (ISG15, IFIT1, IFIT2, IFITM1, CXCL10 and RNA18S) using an Applied Biosystems Quantstudio 6 RT-PCR system. All experiments were carried out in triplicate.

O=C(NC1CCNCC1)c1nn(C(=O)c2c(Cl)cccc2Cl)cc1NC(=O)c1c(Cl)cccc1Cl [JMS-175-2]
IC50 (BRISC; 32-point dose-response, biphasic fit, read-out: IC50(1), biphasic curve): 1.1 µM | IC50 (BRISC; 32-point dose-response, biphasic fit, read-out: IC50(2), biphasic curve): 0.168 µM | Normalised V0 (BRISC; Fig. 1e, BRISC, JMS-175-2 1.9996 μM): 0.6565 and 0.4518 | Normalised V0 (BRISC; Fig. 1e, BRISC, JMS-175-2 5.19739 μM): 0.283 and 0.275 and 0.3465 | Normalised V0 (BRISC; Fig. 1d, log[compound (μM)] 0.0000, listed as H20): 0.6438 and 0.8274 and 0.7444 | Normalised V0 (BRISC; Fig. 1d, log[compound (μM)] 0.3979, listed as H20): 0.5783 and 0.5268 and 0.4841 | Normalised V0 (BRISC; Fig. 1d, log[compound (μM)] 0.6990, listed as H20): 0.3795 and 0.3824 and 0.3190 | Normalised V0 (BRISC; Fig. 1d, log[compound (μM)] 1.0000, listed as H20): 0.2528 and 0.2942 and 0.2669 | Normalised V0 (BRISC; Fig. 1d, log[compound (μM)] 1.4771, listed as H20): 0.1351 and 0.1861 and 0.1726 | Normalised V0 (BRISC; Fig. 1d, log[compound (μM)] 1.6990, listed as H20): 0.1117 and 0.1567 and 0.1200 | Normalised V0 (BRISC; Fig. 1d, log[compound (μM)] -0.3010, listed as H20): 0.9255 and 0.9030 | Normalised V0 (BRISC; Fig. 1d, log[compound (μM)] -1.0000, listed as H20): 0.9975 and 1.0280 and 1.0210 | Normalised V0 (BRISC; Fig. 1d, log[compound (μM)] -2.0000, listed as H20): 1.0150 and 0.9155 and 1.0690 | IC50 (BRISC; IQF K63-linked diubiquitin substrate, read-out: IC50, inhibition of BRISC DUB activity): 3.8 µM | Normalised V0 (BRISC; [Inhibitor] 0.013 μM, replicate columns): 0.9583 and 0.7384 and 1.046 and 0.967 and 0.8595 and 0.8402 | Normalised V0 (BRISC; [Inhibitor] 0.02 μM, replicate columns): 0.8771 and 0.8197 and 1.004 | Normalised V0 (BRISC; [Inhibitor] 0.0399999 μM, replicate columns): 1.299 and 0.7892 and 1.03 | Normalised V0 (BRISC; [Inhibitor] 0.0599997 μM, replicate columns): 0.839 and 0.6819 and 0.9433 | Normalised V0 (BRISC; [Inhibitor] 0.0799994 μM, replicate columns): 0.9097 and 0.9012 and 0.9628 | Normalised V0 (BRISC; [Inhibitor] 0.119998 μM, replicate columns): 1.013 and 0.9179 and 1.054 | Normalised V0 (BRISC; [Inhibitor] 0.199996 μM, replicate columns): 1.253 and 0.7708 and 1.101 | Normalised V0 (BRISC; [Inhibitor] 0.499975 μM, replicate columns): 0.5936 and 0.7022 and 0.9756 | Normalised V0 (BRISC; [Inhibitor] 0.799936 μM, replicate columns): 0.9296 and 0.6017 and 0.8518 | Normalised V0 (BRISC; [Inhibitor] 1.25984 μM, replicate columns): 1.139 and 0.471 and 0.8066 | Normalised V0 (BRISC; [Inhibitor] 1.9996 μM, replicate columns): 0.6565 and 0.4518 and 0.6268 | Normalised V0 (BRISC; [Inhibitor] 3.159 μM, replicate columns): 0.6624 and 0.3061 and 0.5597 | Normalised V0 (BRISC; [Inhibitor] 5.19739 μM, replicate columns): 0.283 and 0.275 and 0.3465 | Normalised V0 (BRISC; [Inhibitor] 7.99364 μM, replicate columns): 0.6473 and 0.2184 and 0.4215 | Normalised V0 (BRISC; [Inhibitor] 12.7839 μM, replicate columns): 0.4135 and 0.1798 and 0.2477 | Normalised V0 (BRISC; [Inhibitor] 19.96 μM, replicate columns): 0.3284 and 0.5166 and 0.3249 | Normalised V0 (BRISC; [Inhibitor] 31.4999 μM, replicate columns): 0.6187 and 0.1303 and 0.1533 | Normalised V0 (BRISC; [Inhibitor] 50.147 μM, replicate columns): 0.2621 and 0.1377 and 0.1733 | Normalised V0 (BRISC; [Inhibitor] 79.7601 μM, replicate columns): 0.2164 and 0.1356 and 0.1726 | Normalised V0 (BRISC; [Inhibitor] 125.99 μM, replicate columns): 0.1111 and 0.1816 and 0.02719 | Normalised V0 (BRISC; [Inhibitor] 199.922 μM, replicate columns): -0.03072 and 0.01018 and -0.03521 | Normalised velocity (V0) (BRISC; inhibitor 0.000794328 μM): 1 | Normalised velocity (V0) (BRISC; inhibitor 0.00125892 μM): 0.9579 and 1.034 | Normalised velocity (V0) (BRISC; inhibitor 0.00199526 μM): 1.01 and 0.9969 | Normalised velocity (V0) (BRISC; inhibitor 0.00316228 μM): 0.9962 and 1.154 | Normalised velocity (V0) (BRISC; inhibitor 0.00501187 μM): 0.9932 and 1.028 | Normalised velocity (V0) (BRISC; inhibitor 0.00794328 μM): 1.087 and 1.121 | normalised V0, Mean (BRISC; inhibitor 0.01 μM): 1 | Normalised velocity (V0) (BRISC; inhibitor 0.0125893 μM): 1.059 and 1.016 | Normalised velocity (V0) (BRISC; inhibitor 0.0199526 μM): 1.08 and 1.097 | Normalised velocity (V0) (BRISC; inhibitor 0.0316228 μM): 1.03 and 1.101 | Normalised velocity (V0) (BRISC; inhibitor 0.0501187 μM): 1.036 and 1.109 | normalised V0, Mean (BRISC; inhibitor 0.0781 μM): 0.9992 | Normalised velocity (V0) (BRISC; inhibitor 0.0794328 μM): 1.026 and 1.083 | Normalised velocity (V0) (BRISC; inhibitor 0.125893 μM): 0.8526 and 0.9544 | Normalised velocity (V0) (BRISC; inhibitor 0.199526 μM): 0.6481 and 0.8082 | Normalised velocity (V0) (BRISC; inhibitor 0.316228 μM): 0.694 and 0.5793 | Normalised velocity (V0) (BRISC; inhibitor 0.398107 μM): 0.5098 and 0.5762 | Normalised velocity (V0) (BRISC; inhibitor 0.630957 μM): 0.4827 and 0.4555 | normalised V0, Mean (BRISC; inhibitor 0.7812 μM): 0.7414 | Normalised velocity (V0) (BRISC; inhibitor 1 μM): 0.3835 and 0.2691 | normalised V0, Mean (BRISC; inhibitor 1.562 μM): 0.5385 | Normalised velocity (V0) (BRISC; inhibitor 1.58489 μM): 0.2248 and 0.2189 | Normalised velocity (V0) (BRISC; inhibitor 2.51189 μM): 0.2301 and 0.1988 | normalised V0, Mean (BRISC; inhibitor 3.12 μM): 0.384 | Normalised velocity (V0) (BRISC; inhibitor 3.98107 μM): 0.1293 and 0.1933 | normalised V0, Mean (BRISC; inhibitor 6.25 μM): 0.2986 | Normalised velocity (V0) (BRISC; inhibitor 6.30957 μM): 0.09323 and 0.07115 | normalised V0, Mean (BRISC; inhibitor 12.3 μM): 0.2014 | Normalised velocity (V0) (BRISC; inhibitor 15.8489 μM): 0.009774 and 0.01547 | normalised V0, Mean (BRISC; inhibitor 24.54 μM): 0.1684 | Normalised velocity (V0) (BRISC; inhibitor 25.1189 μM): 0 | Normalised velocity (V0) (BRISC; inhibitor 39.8107 μM): 0 | normalised V0, Mean (BRISC; inhibitor 48.9 μM): 0.1492 | Normalised velocity (V0) (BRISC; inhibitor 63.0957 μM): 0 | Normalised velocity (V0) (BRISC; inhibitor 100 μM): 0 | normalised V0, Mean (BRISC; inhibitor 100 μM): 0.04999 | normalised V0, Mean (BRISC; inhibitor 199.5 μM): 0.004784 | ISG expression (Fig. 5b) [1]: 1.361 and 1.11 and 1.149 and 1.082 and 0.8783 | ISG expression (Fig. 5c) [1]: 1.325 and 1.127 and 1.329 and 1.145 and 0.8628 | ISG expression (Fig. 5e) [1]: 1.156 and 1.163 and 1.393 and 1.185 and 1.136 | ISG expression (Fig. 5f) [1]: 1.041 and 1.139 and 1.224 and 1.412 and 1.207 | ISG expression (Fig. 5d) [1]: 1.23 and 1.313 and 1.719 and 1.523 and 0.8668
